According to patent US6852485B1, “Method for identifying a compound for the treatment of microorganism infections by inhibiting energy storage and utilization in pathogens” (California State University Fullerton Foundation, priority 2002, dated 2005):

Molecular target: T1, Rhodobacter sphaeroides (Rb.s.) ADPG Ppase (Cereibacter sphaeroides, UniProt Q9RNH7)
T1 construct: made in house
Experiment: ADPGlc synthesis assay (14-C Glc-1-P converted to ADPGlucose) with purified recombinant Rb.s. ADPG Ppase, with and without activator F6P
Format: biochemical
Conditions: for inhibition of Rb.s. ADPG Ppase: 500 μM analog, 0.25 mM ATP, 0.5 mM Glc-1-P, pH 7
Text: One particular in vitro method for assessing the activity of an inhibitor to purified ADPGlc PPase is the following: • Assaying for ADPGlc synthesis activity involves measuring the amount of 14-C labeled Glc-1-P converted to ADPGlucose (Preiss, J., Shen, L., Greenberg, E., and Gentner, N. (1966) Biochemistry 5, 1833-1845). Briefly, unreacted Glc-1-P is separated from product by the following steps: 1)digestion with alkaline phosphatase (thus removing the negatively charged phosphate); 2) spotting an aliquot of the reaction mixture on to positively charged DE-81 filters (Whatman); and 3) washing the filters with water (thus removing the now neutral C-14 glucose).
To assess the effect of a putative inhibitor, enzyme assays are performed at a subsaturating concentration of substrate (depending on the enzyme, ATP=0.2-1 mM, Glc-1-P=0.5 mM) under standard conditions in the absence and presence of the major activator for each enzyme (1-5 mM depending on enzyme). In this way, the effect of the inhibitors can be evaluated under the range of the expected in vivo conditions. Initial screening of a putative inhibitor typically includes testing at two concentrations (˜25 μM and 1 mM)±major activator with appropriate controls and blanks for a total of 9 assays/inhibitor/enzyme (2 control assays—appropriate enzyme concentrations in the absence of inhibitor; 4 experimental assays; 1 blank in the absence of inhibitors; 2 blanks in the presence of inhibitor (no activator required).
The APDGIc Ppase from Rhodobacter sphaeroides has been used as a model enzyme for initial testing of inhibitors as it has been cloned, sequenced, and expressed in the inventor's laboratory (Meyer et al (1999) Arch. Biochem. Biophys. 372, 179-188; Igarashi, R. Y. and Meyer, C. R. (2000) Arch. Biochem. Biophys. 376, 47-58) and the purified recombinant enzyme is readily available. Further, this particular enzyme has the most complex regulation (having partial overlap with nearly every type of ADPG Ppase) and has sufficient homology (ranging from ˜40-70% similarity) to the enzyme primary sequence from the mentioned pathogenic bacteria.
PREMIX: A: 100 mM HEPES (pH 7), 0.5 mg/mL BSA, 0.5 mM Glc-1-P, 0.25 mM ATP subsaturating (near S0.5 value), 5 mM MgCl2, (0.2 U Pyrophosphatase))
PREMIX B: A+1 mM F6P (170 μL premix will allow 20 μL for analog vol., 10 μL of E)
II. ANALOG CONC.=5, 50, 500 μM (STOCK CONC.=5 mM) in 50 mM HEPES, pH 7, note that 20 μL of 5 mM in 200 μL assay will yield 500 μM final concentration to obtain 5 mM aliquots: • ANALOG I: add 625 μL of HEPES buffer, mix thoroughly • ANALOG II: add 500 μL of HEPES buffer, mix thoroughly
1:10 DILUTION ALIQUOTS OF 5 mM STOCKS are prepared in order to generate stock solutions that will give 50 and 5 μM with the addition of 20 μL. 100 μL aliquots are stored at −20 C
RBS ADPG PPASE WT ENZYME CONC.=17 mg/mL (use 1:8000 dilution in Dilution Buffer)
THE FOLLOWING ASSAY SET OF 11 ARE UTILIZED FOR EACH ANALOG • 1-BLANK (Premix A) • 2-BLANK+50 μM ANALOG (A) • 3-BLANK+500 μM ANALOG (A) • 4-E CON (A) • 5-E CON+F6P (B) • 6-E+5 μM (A) • 7-E+5 μM((B) • 8-E+50 μM(A) • 9-E+50 μM(B) • 10-E+500 μM (A) • 11-E+500 μM (B)
Purified Rb.s ADPG Ppase was assayed under standard conditions (0.25 mM ATP [˜S0.5 value], 0.5 mM Glc-1-P, 5 mM Mg, 100 mM HEPES, pH7) in the presence and absence of the activator F6P (1 mM) at 3 concentrations of the analogs: 5, 50, and 500 μM. Analog stock solutions were made in 50 mM HEPES, pH 7). These concentrations should be regarded as estimates as there could have been some breakdown of the compounds during 2 years of storage at −20° C. The analogs had no effect on the background cpm of the assays.

[1] = E + 5 uM analog, Premix A (no F6P)
[2] = E + 5 uM analog, Premix B (+1 mM F6P)
[3] = E + 50 uM analog, Premix A (no F6P)
[4] = E + 50 uM analog, Premix B (+1 mM F6P)
[5] = E + 500 uM analog, Premix A (no F6P)
[6] = E + 500 uM analog, Premix B (+1 mM F6P)

T1 sequence (Q9RNH7 whole entry): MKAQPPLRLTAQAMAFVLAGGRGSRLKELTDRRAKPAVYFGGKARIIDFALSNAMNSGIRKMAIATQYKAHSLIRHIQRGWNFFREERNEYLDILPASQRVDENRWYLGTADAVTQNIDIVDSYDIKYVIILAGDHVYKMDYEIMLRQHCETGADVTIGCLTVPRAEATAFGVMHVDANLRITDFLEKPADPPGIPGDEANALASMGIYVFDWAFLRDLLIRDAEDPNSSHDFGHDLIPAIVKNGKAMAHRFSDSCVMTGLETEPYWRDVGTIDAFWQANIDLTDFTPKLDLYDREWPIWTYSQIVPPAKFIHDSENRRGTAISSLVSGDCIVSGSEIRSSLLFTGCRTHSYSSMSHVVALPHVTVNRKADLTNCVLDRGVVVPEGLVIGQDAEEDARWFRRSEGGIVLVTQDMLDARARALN

BP(=O)(OC[C@H]1O[C@@H](n2cnc3c(N)ncnc32)[C@H](O)[C@@H]1O)OP(=O)(O)O[C@H]1O[C@H](CO)[C@@H](O)[C@H](O)[C@H]1O (single isomer, unassigned) [Analog II, adenosine-α-P-boranodiphosphoglucose]
inhibition of Rb.s. ADPG Ppase (absence of the activator F6P): about 70% | inhibition of Rb.s. ADPG Ppase (presence of F6P (1 mM)): about 70% | Units/mg (enzyme activity) [1]: 5.28 Units/mg | Units/mg (enzyme activity) [2]: 93.86 Units/mg | Units/mg (enzyme activity) [3]: 4.38 Units/mg | Units/mg (enzyme activity) [4]: 76.73 Units/mg | Units/mg (enzyme activity) [5]: 1.77 Units/mg | Units/mg (enzyme activity) [6]: 33.51 Units/mg

BP(=O)(OC[C@H]1O[C@@H](n2cnc3c(N)ncnc32)[C@H](O)[C@@H]1O)OP(=O)(O)O[C@H]1O[C@H](CO)[C@@H](O)[C@H](O)[C@H]1O (single isomer, unassigned) [Analog I, adenosine-α-P-boranodiphosphoglucose]
inhibition of Rb.s. ADPG Ppase (absence of the activator F6P): about 75% | inhibition of Rb.s. ADPG Ppase (presence of F6P (1 mM)): ~50% | Units/mg (enzyme activity) [1]: 4.02 Units/mg | Units/mg (enzyme activity) [2]: 91.75 Units/mg | Units/mg (enzyme activity) [3]: 3.55 Units/mg | Units/mg (enzyme activity) [4]: 87.40 Units/mg | Units/mg (enzyme activity) [5]: 1.33 Units/mg | Units/mg (enzyme activity) [6]: 53.37 Units/mg
